Data on 13 compounds can be found in ChEMBL document CHEMBL1201862, “PubChem BioAssay data set” (2004).

Test systems include RXF 393; SNB-75; NCI-H460; OVCAR-3; NCI-H226; M14; UO-31; IGROV-1; PC-3; CAKI-1; SK-MEL-5; NCI-H522; MDA-MB-231; HCT-15; KM12; HL-60; MOLT-4; SK-MEL-2.
Experiment in all cases: growth of human tumour cells (NCI), 48 h

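These data come from cells grown in 96-well plates and exposed to compound for 48 hours at five concentrations. GI50 = concentration required for 50% inhibition of growth.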 Calls of active or inactive are those of the source. Rule as the data show it: active = GI50 up to about 1.1 µM and inactive = higher. Bounds are passed on as bounds.

Consider `CN(C)c1ccc(/C=N/CC2CCCN3CCCCC23)cc1` (stereo not drawn), for which the GI50 with RXF 393 is 47.3 µM (inactive); in the test with SNB-75 it was > 100 µM (inactive); in the test with NCI-H460, > 100 µM (inactive); with OVCAR-3, > 100 µM (inactive); with NCI-H226, > 100 µM (inactive); with M14, > 100 µM (inactive). Moreover, the GI50 in the test with UO-31 was > 100 µM (inactive); in the test with IGROV-1, > 100 µM (inactive); in the test on PC-3, > 100 µM (inactive); in the test with CAKI-1, > 100 µM (inactive); with SK-MEL-5, 58.7 µM (inactive); with NCI-H522, > 100 µM (inactive). The GI50 in the test with MDA-MB-231 was > 100 µM (inactive); with HCT-15, greater than 100 µM; with KM12, > 100 µM (inactive).

With `CC(=O)Nc1ccc(-c2nnc(SCC(=O)Nc3ccc(Cl)cc3Cl)o2)cc1`, the GI50 with RXF 393 is 33.7 µM (inactive); with SNB-75, 31.3 µM (inactive); in the test with NCI-H460 it was 32.9 µM (inactive); with OVCAR-3 it was 18.6 µM (inactive); with NCI-H226, 29.2 µM (inactive); in the test on HL-60 it was 27.8 µM (inactive). Besides, the GI50 with MOLT-4 is 40.8 µM (inactive); in the test on M14 it was 29.3 µM (inactive); in the test on UO-31, 94.8 µM (inactive); with IGROV-1 it was 37.1 µM (inactive); in the test with CAKI-1, > 100 µM (inactive); in the test with SK-MEL-5, 19.5 µM (inactive). Moreover, the GI50 with NCI-H522 was 20.7 µM (inactive); in the test with SK-MEL-2 it was > 100 µM (inactive); in the test with HCT-15 it was 38.5 µM; in the test on KM12, 65.9 µM (inactive).

With `COC(OC)c1cc2c(cc1C(=O)[C@@]13CCC[C@@H]1NC(=O)O3)OCO2`, the GI50 with RXF 393 was 52.2 µM (inactive); in the test on SNB-75 it was 49 µM (inactive); in the test on NCI-H460, > 100 µM (inactive); in the test on OVCAR-3, > 100 µM (inactive); in the test with NCI-H226, > 100 µM (inactive); in the test with HL-60 it was > 100 µM (inactive). The GI50 in the test on MOLT-4 was > 100 µM (inactive); in the test with M14, > 100 µM (inactive); in the test with UO-31 it was 60.3 µM (inactive); with IGROV-1, 73.5 µM (inactive); in the test with CAKI-1, > 100 µM (inactive); in the test with SK-MEL-5, 41.2 µM (inactive). For the same compound, the GI50 in the test with NCI-H522, in the test with SK-MEL-2 and with KM12 was > 100 µM (inactive) in each case.

`O=C1C=C(Nc2ccccc2C(=O)CC(=O)C(=O)Nc2cccc([N+](=O)[O-])c2)c2ccccc2C1=O`: the GI50 is 46.3 µM (inactive) with RXF 393; 64.7 µM (inactive) with SNB-75; 93.3 µM (inactive) in the test with NCI-H460; 14.2 µM (inactive) in the test on OVCAR-3; 59.3 µM (inactive) in the test with NCI-H226; 3.38 µM (inactive) in the test on HL-60. Moreover, the GI50 in the test on MOLT-4 was 4.28 µM (inactive); with M14, 41.5 µM (inactive); with UO-31, 34.9 µM (inactive); with IGROV-1, 80.4 µM (inactive); with CAKI-1, > 100 µM (inactive); with SK-MEL-5 it was 12.9 µM (inactive). Also, the GI50 with NCI-H522 was 21.8 µM (inactive); in the test on SK-MEL-2, 56 µM (inactive); in the test on HCT-15, 23.8 µM; in the test on KM12, 36.7 µM (inactive).

As for `CCCCOP1(=O)C=C(C)C(=C(Cl)Cl)C(C)=C1` (stereo not drawn), the GI50 with RXF 393 is 8.51 µM (inactive); in the test on SNB-75, 11.4 µM (inactive); in the test on NCI-H460, 13 µM (inactive); with OVCAR-3 it was 17.9 µM (inactive); in the test with NCI-H226, 3.38 µM (inactive); in the test with HL-60, 2.4 µM (inactive). Moreover, the GI50 with MOLT-4 was 3.02 µM (inactive); in the test on M14 it was 11.6 µM (inactive); in the test on UO-31 it was 19.5 µM (inactive); with IGROV-1 it was 14.8 µM (inactive); in the test on CAKI-1, 5.83 µM (inactive); with SK-MEL-5, 3.84 µM (inactive). The GI50 in the test on NCI-H522 was 5.45 µM (inactive); in the test with SK-MEL-2, 1.98 µM (inactive); in the test on HCT-15 it was 11.5 µM; in the test with KM12, 2 µM (inactive).

Take `O=C1NCCS(=O)(=O)N[C@@H](CC2=CC=CCC2)C(=O)N2CCCC12` (stereo partly drawn): the GI50 with RXF 393, with SNB-75, with NCI-H460, in the test on OVCAR-3, in the test with NCI-H226 and with HL-60 was > 100 µM (inactive) in each case. For the same compound, the GI50 with MOLT-4, in the test with M14, with UO-31, in the test on IGROV-1, in the test with SK-MEL-5 and with NCI-H522 was > 100 µM (inactive) in each case. Further, the GI50 with SK-MEL-2 was > 100 µM (inactive); in the test on HCT-15, greater than 100 µM; with KM12, > 100 µM (inactive).

`CC1OC(n2cc(F)c(=O)[nH]c2=O)CCC1=O` (stereo not drawn): the GI50 was > 100 µM (inactive) in the test with RXF 393; > 100 µM (inactive) in the test with SNB-75; 32.2 µM (inactive) in the test on NCI-H460; > 100 µM (inactive) in the test with NCI-H226; 74.6 µM (inactive) in the test with HL-60; > 100 µM (inactive) in the test on MOLT-4. In addition, the GI50 in the test on M14 is > 100 µM (inactive); in the test on UO-31 it was 71.8 µM (inactive); in the test on IGROV-1, > 100 µM (inactive); in the test with CAKI-1 it was > 100 µM (inactive); in the test on SK-MEL-5, > 100 µM (inactive); in the test with NCI-H522, > 100 µM (inactive). Also, the GI50 with SK-MEL-2 was > 100 µM (inactive); with HCT-15 it was 95.3 µM; in the test on KM12 it was 92.9 µM (inactive).

For the compound `CCOC(=O)Cn1c(=O)c2nc(SC)sc2n(-c2ccccc2)c1=O`, the GI50 with RXF 393, in the test on SNB-75, in the test with NCI-H460, with NCI-H226, in the test with HL-60 and in the test with MOLT-4 was > 100 µM (inactive) each time. Also, the GI50 with M14, with UO-31, in the test with IGROV-1, with PC-3, with SK-MEL-5 and with SK-MEL-2 was > 100 µM (inactive) throughout. Also, the GI50 in the test on MDA-MB-231 is > 100 µM (inactive); in the test with HCT-15, greater than 100 µM; with KM12, > 100 µM (inactive).

Take `OC12CC/C(=N/OCc3ccccc3)CC1c1ccccc12` (stereo not drawn): the GI50 is > 100 µM (inactive) in the test on RXF 393; 39.7 µM (inactive) in the test with SNB-75; > 100 µM (inactive) in the test on NCI-H460; > 100 µM (inactive) with OVCAR-3; > 100 µM (inactive) with NCI-H226; > 100 µM (inactive) with HL-60. The GI50 in the test on MOLT-4, in the test with M14, in the test on UO-31, in the test on IGROV-1, with CAKI-1 and with SK-MEL-5 was > 100 µM (inactive) each time. For the same compound, the GI50 in the test on NCI-H522 was > 100 µM (inactive); in the test with SK-MEL-2 it was > 100 µM (inactive); in the test on HCT-15 it was greater than 100 µM; in the test on KM12, > 100 µM (inactive).

Regarding `CC#CC1C(OC(=O)c2ccccc2)CCCC1(CI)N=[N+]=[N-]` (stereo not drawn), the GI50 in the test with RXF 393 is 52 µM (inactive); in the test on SNB-75, > 100 µM (inactive); in the test on NCI-H460, 60.7 µM (inactive); in the test with OVCAR-3, > 100 µM (inactive); in the test with NCI-H226 it was 84.3 µM (inactive); in the test with HL-60 it was 15.1 µM (inactive). In addition, the GI50 with MOLT-4 is 13.6 µM (inactive); with M14, 59.8 µM (inactive); in the test with UO-31, 56.5 µM (inactive); in the test with IGROV-1, > 100 µM (inactive); with CAKI-1, > 100 µM (inactive); in the test with SK-MEL-5, 19.5 µM (inactive). Further, the GI50 in the test with NCI-H522 was 22.4 µM (inactive); in the test on SK-MEL-2, 75 µM (inactive); in the test on HCT-15, 45.2 µM; in the test on KM12, 89.7 µM (inactive).

Consider `N#CC1=C(c2ccccc2)NN(Cc2ccccc2)C(c2ccc(Cl)cc2)CC1=O` (stereo not drawn), for which the GI50 with RXF 393 is 22.3 µM (inactive); in the test with SNB-75, 18.3 µM (inactive); in the test on NCI-H460, 18 µM (inactive); in the test on NCI-H226 it was 57.8 µM (inactive); in the test with HL-60, 28.2 µM (inactive); with MOLT-4 it was 4.91 µM (inactive). For the same compound, the GI50 was 30.1 µM (inactive) with CAKI-1; 15.6 µM (inactive) in the test with SK-MEL-5; 12.7 µM (inactive) with NCI-H522; 25.8 µM (inactive) in the test on SK-MEL-2; 22.9 µM in the test with HCT-15; 25.8 µM (inactive) in the test with KM12.

In the case of `CC1(C)COC2(OC1)C1=NS(=O)(=O)CC13CCC2C3(C)C` (stereo not drawn), the GI50 in the test with RXF 393, in the test with SNB-75, in the test with NCI-H460, in the test on OVCAR-3, in the test on NCI-H226 and with HL-60 was > 100 µM (inactive) in each case. Besides, the GI50 in the test with MOLT-4, in the test with M14, in the test with UO-31, in the test with IGROV-1, with CAKI-1 and in the test with SK-MEL-5 was > 100 µM (inactive) in each case. Further, the GI50 is > 100 µM (inactive) in the test on NCI-H522, > 100 µM (inactive) with SK-MEL-2, greater than 100 µM with HCT-15 and > 100 µM (inactive) with KM12.

Turning to `CN(C)C(=Nc1nc(N(C)C)s[s+]1)N(C)C`, the GI50 was > 100 µM (inactive) in the test with RXF 393; > 100 µM (inactive) in the test with SNB-75; > 100 µM (inactive) in the test with NCI-H460; 72.8 µM (inactive) in the test on NCI-H226; > 100 µM (inactive) in the test with HL-60; > 100 µM (inactive) with MOLT-4. The GI50 with M14, with UO-31, in the test on IGROV-1, in the test with CAKI-1, in the test with SK-MEL-5 and in the test with NCI-H522 was > 100 µM (inactive) in each case. The GI50 is > 100 µM (inactive) with SK-MEL-2, greater than 100 µM in the test on HCT-15 and > 100 µM (inactive) with KM12.
